Measured values reported in patent publication US20240415828A1, “TLR7 AGONIST AND COMBINATIONS FOR CANCER TREATMENT” (BIONTECH SE, priority 2021, published 2024).

Assays:
BALB/c mice = test: In vivo cytokine release in BALB/c mice (IFNa ELISA); parameters: species or system mouse; details: 3 mg/kg retro-orbital vs 5, 10, 15 mg/kg; blood 1 h after application
Experimental: FIG. 2. In vivo cytokine release in BALB/c mice upon administration of BNT411. Female BALB/c mice were retro-orbitally administered with doses of 3, 5, 10, and 15 mg/kg BNT411. Blood samples were drawn 1 h after compound application and analyzed with mouse IFNa ELISA.
Serum levels of IFNα were measured by sandwich ELISA (Pbl Assay Systems) according to manufacturer's instructions.
Female BALB/c mice were retro-orbitally administered with doses of 3, 5, 10, and 15 mg/kg BNT411. Blood samples were drawn 1 h after compound application and analyzed with mouse IFNa ELISA.

Human PBMCs = test: In vitro human PBMC stimulation assay (IFNα, multiplexed CBA); type: cell-based; details: 24 h after stimulation, n=5
Experimental: FIG. 1. In vitro human PBMC stimulation assay. […] Data shown as mean±standard deviation (SD), n=5.
After performing a serial dilution of the test compounds (such as BNT411), 5 μL of each sample is transferred/pipetted to single wells of a 96-well-plate. As negative control, plasma which has been prepared from whole blood of each donor is used. Subsequently, 245 μL of RPMI-medium is added to each well, leading to a 1:50 dilution of each sample, named spiking solutions. The heparinized whole blood is pipetted to separate 96-well-plate. After seeding whole blood, the prepared spiking solutions are added: 190 μL of whole blood is seeded in each well and 10 μL of spiking solutions is added to get a final volume of 200 μL per well and additional 1:20 dilution of all samples. Finally, the plates are incubated at 37° C. and 5% CO2. After 24 h incubation the plates are centrifuged at 500×g for 5 min. The plasma of all samples is harvested, transferred to a new 96-well-plate and frozen at −15° C. to −25° C. until performing the CBA, but at least 3 h.
The CBA is performed with the frozen/thawed plasma samples according to the manufacturer's instructions for ProCarta multiplex kits. For evaluation of cytokine concentrations, assay duplicates of all samples are measured by using the luminex system. […]

solid tumor = test: Clinical trial Part 1A, BNT411 monotherapy dose escalation; type: in vivo, human
Experimental: FIG. 8. Release of certain cytokines from preparations obtained from whole blood of human patients treated with BNT411 at various dose levels. Mean maximum fold change (+SD) calculated from the highest cytokine value observed on day 1 in treatment cycle 1 relative to baseline. IFNα and IL-6 peaked 4 to 8 hours after treatment, IP-10 and TNFa peaked 2.5 to 8 hours after treatment.
To this end, a trial was designed to assess the safety profile of BNT411 in monotherapy and in combination with atezolizumab, etoposide, and carboplatin (atezo/EC) and to determine the maximum tolerated dose/recommended phase 2 dose (MTD/RP2D). This trial comprised two parts (1A and 1B) with dose escalation, wherein the patients of part 1A received BNT411 monotherapy and patients of part 1B received BNT411 together with atezolizumab, etoposide, and carboplatin. The patients had solid tumor (preferably ES-SCLC for part 1B) and received the drugs according to the following dosing schedule (until disease progression, unacceptable toxicity, or death): • Part 1A: 3-week cycles, BNT411 i.v. Q1W for 4 cycles, then Q3W • Part 1B: 3-week cycles, BNT411 i.v. Q1W for 4 cycles, then Q3W; atezo/EC Q3W
DL1-DL3 of Part 1A were single-patient cohorts, all other dose levels were 3+3 cohorts.
Efficacy was assessed by CT/MRI imaging according to RECIST 1.1 and iRECIST every 6 weeks for 48 weeks, and every 12 weeks thereafter. Safety was assessed by physical examination, vital signs, electrocardiogram, clinical laboratory assessments, eye examinations, ECOG, pregnancy testing, and ECHO/MUGA. Biomarker assessments included tumor biopsies and blood sampling for cytokine analysis, immune phenotyping, tumor mutational burden, and TCR profiling.
As of Aug. 26, 2021, the patients were located in seven trial centers (UK, USA, Spain, Germany). Twenty-five patients were screened (Part 1A: 22; Part 1B: 3) with seven screen failures (all Part 1A). Eighteen patients enrolled (Part 1A: 15; Part 1B: 3), wherein fifteen patients were evaluable (Part 1A: 12; Part 1B: 3). Two Part 1A patients were replaced (at DL1 due to incorrect dosing and at DL5 due to PD before DLT evaluation completed). One Part 1A patient dropped out of trial before receiving treatment.
The trial population consists of histologically confirmed solid tumor patients with metastatic or unresectable disease for which there is no available standard therapy likely to confer clinical benefit, or patients who are not candidates for such available therapy.

[1] = Part 1A, patients (%), as of Aug. 26, 2021
[2] = Part 1A, patients, as of Aug. 26, 2021

COCCc1nc2c(N)nc3ccccc3c2n1CCCCN(C(C)=O)C1CCOCC1 [BNT411]
IFNa secretion (BALB/c mice): stronger IFNa secretion as compared to higher BNT411 doses | amount of IFNα induced compared to imiquimod (R837), resiquimod (R848) and 852A (Human PBMCs): significantly higher amount | concentrations inducing IFNα, fold lower compared to imiquimod (R837), resiquimod (R848) and 852A (Human PBMCs): 10 to 30 fold | cytokine changes (solid tumor; DL1A, DL2A, or DL3A (0.05-0.45 μg/kg)): No meaningful cytokine changes | induction of IFN-a and IP-10 (solid tumor; DL5 onwards, substantially starting at DL6, data update October 2022): increased | IL-6 induction (solid tumor; DL6A): some increase | IP-10 level relative to assay range (solid tumor; DL6A): upper limit of detection of the assay was reached | induction of IFNa, IP-10, and other mode-of-action relevant cytokines (solid tumor; DL6A (4.8 μg/kg)): substantial induction | tumor response (RECIST 1.1), third patient (solid tumor; DL7, trial Day 251, still on treatment): partial response | dose limiting toxicity (DLT), or related grade 4-5 AEs (solid tumor; Part 1A): no | TEAEs related to BNT411 monotherapy: Anaemia, Grade 4 (solid tumor; [1]): 2 (13%) | TEAEs related to BNT411 monotherapy: Blood bilirubin increased, Grade 4 (solid tumor; [1]): 1 (7%) | TEAEs related to BNT411 monotherapy: Chills, Grade 4 (solid tumor; [1]): 2 (13%) | TEAEs related to BNT411 monotherapy: Diarrhoea, Grade 4 (solid tumor; [1]): 1 (7%) | TEAEs related to BNT411 monotherapy: Fatigue, Grade 4 (solid tumor; [1]): 1 (7%) | TEAEs related to BNT411 monotherapy: Headache, Grade 4 (solid tumor; [1]): 1 (7%) | TEAEs related to BNT411 monotherapy: Hyperbilirubinaemia, Grade 4 (solid tumor; [1]): 1 (7%) | TEAEs related to BNT411 monotherapy: Hypotension, Grade 4 (solid tumor; [1]): 1 (7%) | TEAEs related to BNT411 monotherapy: Illness, Grade 4 (solid tumor; [1]): 1 (7%) | TEAEs related to BNT411 monotherapy: Infusion related reaction, Grade 4 (solid tumor; [1]): 1 (7%) | TEAEs related to BNT411 monotherapy: Nausea, Grade 4 (solid tumor; [1]): 1 (7%) | TEAEs related to BNT411 monotherapy: Neutropenia, Grade 4 (solid tumor; [1]): 1 (7%) | TEAEs related to BNT411 monotherapy: Pruritus, Grade 4 (solid tumor; [1]): 1 (7%) | TEAEs related to BNT411 monotherapy: Pyrexia, Grade 4 (solid tumor; [1]): 3 (20%) | TEAEs related to BNT411 monotherapy: Total number of patients with TEAEs, Grade 4 (solid tumor; [1]): 7 (47%) | TEAEs related to BNT411 monotherapy: Anaemia, Grade 1 (solid tumor; [2]): 1 | TEAEs related to BNT411 monotherapy: Anaemia, Grade 3 (solid tumor; [2]): 1 | TEAEs related to BNT411 monotherapy: Blood bilirubin increased, Grade 1 (solid tumor; [2]): 1 | TEAEs related to BNT411 monotherapy: Chills, Grade 1 (solid tumor; [2]): 2 | TEAEs related to BNT411 monotherapy: Diarrhoea, Grade 2 (solid tumor; [2]): 1 | TEAEs related to BNT411 monotherapy: Fatigue, Grade 2 (solid tumor; [2]): 1 | TEAEs related to BNT411 monotherapy: Headache, Grade 1 (solid tumor; [2]): 1 | TEAEs related to BNT411 monotherapy: Hyperbilirubinaemia, Grade 1 (solid tumor; [2]): 1 | TEAEs related to BNT411 monotherapy: Hypotension, Grade 1 (solid tumor; [2]): 1 | TEAEs related to BNT411 monotherapy: Illness, Grade 1 (solid tumor; [2]): 1 | TEAEs related to BNT411 monotherapy: Infusion related reaction, Grade 2 (solid tumor; [2]): 1 | TEAEs related to BNT411 monotherapy: Nausea, Grade 1 (solid tumor; [2]): 1 | TEAEs related to BNT411 monotherapy: Neutropenia, Grade 1 (solid tumor; [2]): 1 | TEAEs related to BNT411 monotherapy: Pruritus, Grade 1 (solid tumor; [2]): 1 | TEAEs related to BNT411 monotherapy: Pyrexia, Grade 1 (solid tumor; [2]): 1 | TEAEs related to BNT411 monotherapy: Pyrexia, Grade 2 (solid tumor; [2]): 2 | safety profile (solid tumor; all doses tested as of Aug. 26, 2021 (up to DL6)): acceptable safety profile | time of IFNa and IL-6 peak after treatment (solid tumor; day 1, treatment cycle 1): 4 to 8 h | time of IP-10 and TNFa peak after treatment (solid tumor; day 1, treatment cycle 1): 2.5 to 8 h | AEs related to BNT411 monotherapy: chills, share of patients (solid tumor; grade 1, Part 1A DL1 and DL6): 13% | AEs related to BNT411 monotherapy: pyrexia, share of patients (solid tumor; grades 1 and 2, Part 1A DLs 1*, 2, and 6): 20% | AEs related to BNT411 monotherapy: anaemia, share of patients (solid tumor; grades 1 and 3, Part 1A DL4 and DL5): 13% | tumor response (RECIST 1.1), second patient (solid tumor; intermediate dose level between DL6 and DL7, as of Day 420): stable disease | change in sum of target lesion diameters compared with baseline, second patient (solid tumor; intermediate dose level between DL6 and DL7, trial Day 86): −26.2% | cytokine release (solid tumor; ten patients, DL4A, DL5A, DL6A): dose-dependent cytokine release | serious adverse events with a possible causal relationship to BNT411 monotherapy (solid tumor; two cases of infusion-related reaction, grades 1 and 2, same patient, Part 1A DL6): Two | tumor response (RECIST 1.1), patient started at DL4, increased to DL5 (C8D1) and DL6 (C12D1) (solid tumor; until trial Day 449, cutoff Oct. 13, 2022): stable disease | overall safety profile (solid tumor; up to DL6, data update October 2022): acceptable overall safety profile | TNFa induction levels (solid tumor; up to DL6A): remained unchanged
